This is an account of results in PubChem BioAssay (NCI).

Assay in all cases: growth of human tumour cells (NCI), 48 h
The subject of test [1] is K-562 leukemia.
The subject of test [2] is M14 melanoma.
Test [3] concerns NCI-H226 lung.
Test [4] has as its system OVCAR-8 ovarian.
For test [5], the system named is SK-MEL-2 melanoma.
Test [6] has as its system SK-MEL-5 melanoma.
Test [7] deals with SNB-19 CNS.
Test [8] has as its system SNB-75 CNS.
The test system of test [9] is T-47D breast.
The test system of test [10] is UO-31 renal.

Molecules are shown by their SMILES. Where “and” joins values, the source holds several entries; their conditions need not be identical. Identical values can stand only once.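 Where inhibition never reached the appropriate level, the endpoint shown equals the highest concentration tested. Otherwise, values were interpolated linearly from a five-concentration, 48-hour dose response in 96-well plates. GI50 marks 50% less growth. At the TGI there is no net growth.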

Turning to `COc1ccc2c(c1)N(CCO)C1=C(C(=O)OC1)C2c1cccc(F)c1` (stereo not given), the GI50 is 0.199 µM in [1]; 0.285 µM in [2]; 4.16 µM in test [3]; 1.24 µM in test [4]; 0.801 µM in [5]; 0.456 µM in [6]. Moreover, the GI50 is 0.288 µM in test [7], 0.186 µM in [8], 1.95 µM in test [9] and 0.413 µM in test [10]. The TGI in test [1] is more than 50 µM; in test [2] it was more than 50 µM; in test [3], more than 50 µM; in test [4], more than 50 µM; in [5], more than 36.2 µM; in [6] it was more than 11.4 µM. The TGI in test [7] was more than 50 µM; in [8], 13.6 µM; in [9] it was more than 50 µM; in test [10], more than 50 µM.

In the case of `O=C(O)c1ccc(C(=O)c2ccccc2)c(C(=O)O)c1`, the TGI in test [1], in [2], in test [3], in test [4], in test [5] and in test [6] was more than 100 µM each time. Besides, the TGI in test [7], in test [8], in test [9] and in test [10] was more than 100 µM in each case.

For the compound `O=C(Nc1ccc(OCc2nnc(-c3ccc(Cl)cc3)o2)c(F)c1)Nc1ccc(Cl)c(C(F)(F)F)c1`, the GI50 was 2.94 µM in [1]; 2.23 µM in test [2]; 2.84 µM in test [3]; 2.97 µM in test [4]; 3.17 µM in [5]; 2.01 µM in [6]. For the same compound, the GI50 in test [7] is 2.92 µM; in [8], 1.44 µM; in [9], 2.21 µM; in test [10] it was 1.52 µM. Besides, the TGI in test [1] was 12.6 µM; in [2], 11.7 µM; in [3], 13.2 µM; in test [4], 12.1 µM; in [5] it was 9.48 µM; in [6], 4.42 µM. Also, the TGI was found to be 18.3 µM in test [7], 6.29 µM in test [8], 8.66 µM in test [9] and 4.1 µM in [10].

For `O=C1c2ccccc2-c2cc([N+](=O)[O-])c([N+](=O)[O-])cc21`, the TGI is 8.04 µM in test [1]; 3.43 µM in test [2]; 12.6 µM in [3]; 3.57 µM in test [4]; 3.66 µM in test [5]; 3.94 µM in [6]. Moreover, the TGI in [7] is 3.36 µM; in test [8], 3.39 µM; in test [9] it was 2.69 µM; in test [10] it was 3.07 µM.

With `Nc1nc(OCc2ccccc2)c2[nH]cnc2n1`, the GI50 in test [1] was 46.4 µM; in test [2], 25.6 µM and 26.5 µM; in [3] it was 36.8 µM and 16.3 µM; in test [4], 64.8 µM and 63 µM; in [5], 25.1 µM; in test [6], 34.5 µM and 35.4 µM. The GI50 in test [7] is 86.2 µM and 33 µM; in test [8] it was 13.9 µM; in test [9], 24.9 µM and 23.2 µM; in [10], 17.1 µM. The TGI was 400 µM and 307 µM in [1]; 204 µM and 116 µM in test [2]; 119 µM and 82 µM in [3]; 400 µM and 492 µM in test [4]; 177 µM in [5]; 193 µM and 149 µM in test [6]. Further, the TGI in test [7] is 400 µM and 213 µM; in test [8] it was 67.3 µM and 86.1 µM; in test [9], 205 µM; in [10], 82 µM and 82.2 µM.

Regarding `O=S(=O)(Nc1cc(Sc2cccc3cccnc23)c(O)c2ccccc12)c1ccc(F)cc1`, the GI50 in [1] is 1.37 µM; in test [2] it was 1.27 µM; in test [3] it was 3.24 µM; in [4] it was 0.645 µM; in test [5], 1.84 µM; in test [6], 1.66 µM. The GI50 in test [7] was 2.55 µM; in [8] it was 3.68 µM; in test [9], 1.75 µM; in test [10] it was 1.09 µM. In addition, the TGI was 9.52 µM in test [1]; 3.53 µM in test [2]; 19 µM in test [3]; 10.3 µM in [4]; 7.52 µM in [5]; 3.16 µM in [6]. The TGI in test [7] came out at 17.1 µM; in [8], 15.2 µM; in test [9] it was 4.67 µM; in test [10], 4.75 µM.

Consider `CC(C)C[C@H](NC(=O)CNC(=O)c1cc(Cl)ccc1Cl)B1OC(=O)CC(CC(=O)O)(C(=O)O)O1` (stereo not given in full), for which the GI50 in test [1] is 0.074 µM; in test [2], 0.034 µM; in test [3], 0.0141 µM; in [4], 0.066 µM; in test [5] it was 0.0399 µM; in [6], 0.0177 µM. Further, the GI50 was 0.209 µM in [7], 0.182 µM in test [8], 0.0285 µM in test [9] and 0.0586 µM in test [10]. The TGI in test [1] is more than 100 µM; in test [2], 0.143 µM; in test [3], 0.0325 µM; in [4], 1.44 µM; in test [5] it was 0.239 µM; in [6], 0.0467 µM. For the same compound, the TGI in test [7] was more than 100 µM; in test [8] it was 0.504 µM; in test [9], 0.0819 µM; in test [10], 2 µM.

For the compound `COc1ccc(-c2nc(Nc3cc(C)[nH]n3)c3ccccc3n2)cc1`, the GI50 is 3.25 µM in test [1]; 0.75 µM in [2]; 1.62 µM in test [3]; 6.16 µM in test [4]; 0.44 µM in [5]; 4.11 µM in [6]. Also, the GI50 in test [7] is 2.88 µM; in test [8], 0.289 µM; in test [9], 1.59 µM; in test [10] it was 0.529 µM. Besides, the TGI in test [1] was more than 100 µM; in test [2] it was 31.4 µM; in [3], more than 33.3 µM; in test [4], 99.8 µM; in [5] it was 40.6 µM; in test [6], 22.7 µM. Also, the TGI in test [7] was more than 100 µM; in test [8], 2.27 µM; in test [9], more than 25.6 µM; in test [10] it was 14.9 µM.
